Numbered stars: 1 amine (or outer) side, 2 acyl side, 3 side chain; on linkers, the order of the positions; unused ones are H or OH. Square brackets hold non-standard residues; d marks the D form. Peptide text beside a SMILES is read from it. * marks the point of attachment. X1 = O=C(O)C1(OCCCCC(=O)[*:2])CC(O)C(N[*:1])C([C@@H](O)[C@H](O)CO)O1; NH(1-naphthylmethyl) = c1ccc2c(CN*)cccc2c1
assay: Tested for inhibition of hemagglutinination in chicken red blood cell (RBC); assay type: functional, Gallus gallus

SMILES	Ki
C=CC(=O)NCCCOCCCCOC1(C(=O)O)CC(O)C(NC(C)=O)C([C@@H](O)[C@H](O)CO)O1 (some centres undefined)	1000 µM
C=CC(=O)NOCCCOCCCCOC1(C(C)=O)CC(O)C(NC(C)=O)C([C@@H](O)[C@H](O)CO)O1 (some centres undefined)	> 600 µM
COC(=O)C1(OC)CC(O)C(NC(C)=O)C([C@@H](O)[C@H](O)CO)O1 (some centres undefined)	14000 µM
C=CC(=O)NOCCCOCCCCOC1(C(=O)O)CC(O)C(NC(C)=O)C([C@@H](O)[C@H](O)CO)O1 (some centres undefined)	0.3 µM
CC(=O)NC1C(OC(=O)CNS(=O)(=O)c2cccc3c(N(C)C)cccc23)CC(OCCCCCCC(=O)NCc2cccc3ccccc23)(C(=O)O)OC1[C@@H](O)[C@H](O)CO (some centres undefined)	3 µM
C=CC(=O)NOCCCOCCCCOC1(C(N)=O)CC(O)C(NC(C)=O)C([C@@H](O)[C@H](O)CO)O1 (some centres undefined)	> 600 µM
CC(=O)NC1C(O)CC(OCCCCC(=O)NCC(=O)NCC(=O)NCC(=O)NCC(=O)NCc2cccc3ccccc23)(C(=O)O)OC1[C@@H](O)[C@H](O)CO (some centres undefined) (Ac-[X1]GGGG-{NH(1-naphthylmethyl)})	30 µM
COC1(C(=O)O)CC(O)C(NC(C)=O)C([C@@H](O)[C@H](O)CO)O1 (some centres undefined)	2500 µM
COC1(C(=O)O)CC(O)C(NC(C)=O)C([C@@H](O)C(O)O)O1 (some centres undefined)	2500 µM
